According to ChEMBL document CHEMBL1126330, “Synthesis of RP-67,580, a new potent nonpeptide substance P antagonist” (Bioorg Med Chem Lett, 1992):

Tests used:
Substance-P receptor [1] = molecular target: Substance-P receptor (Cavia porcellus, UniProt P30547); test: Tested for inhibition of contractile effects of Tachykinin receptor 1 in guinea pig ileum preparation.; format: functional, tissue-based; conditions: read-out: pA2 (converted)
Substance-P receptor [2] = molecular target: Substance-P receptor (Rattus norvegicus, UniProt P14600); test: Tested for binding affinity towards Tachykinin receptor 1 by using [3H]SP binding assay in rat brain membranes; format: cell membranes
Sequence of Substance-P receptor (Rattus norvegicus, UniProt P14600) (P14600 whole entry): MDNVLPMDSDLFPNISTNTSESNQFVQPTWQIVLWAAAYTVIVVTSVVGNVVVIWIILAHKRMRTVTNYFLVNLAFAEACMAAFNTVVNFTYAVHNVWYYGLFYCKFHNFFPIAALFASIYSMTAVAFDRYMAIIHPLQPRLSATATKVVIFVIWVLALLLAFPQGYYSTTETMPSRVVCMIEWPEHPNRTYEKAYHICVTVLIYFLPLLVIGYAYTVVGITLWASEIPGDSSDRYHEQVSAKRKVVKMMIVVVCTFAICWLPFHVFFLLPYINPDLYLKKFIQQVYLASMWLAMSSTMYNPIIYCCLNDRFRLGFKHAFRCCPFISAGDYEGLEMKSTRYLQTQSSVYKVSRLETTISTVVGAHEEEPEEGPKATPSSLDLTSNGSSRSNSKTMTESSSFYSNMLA

Sequence of Substance-P receptor (Cavia porcellus, UniProt P30547) (P30547 whole entry): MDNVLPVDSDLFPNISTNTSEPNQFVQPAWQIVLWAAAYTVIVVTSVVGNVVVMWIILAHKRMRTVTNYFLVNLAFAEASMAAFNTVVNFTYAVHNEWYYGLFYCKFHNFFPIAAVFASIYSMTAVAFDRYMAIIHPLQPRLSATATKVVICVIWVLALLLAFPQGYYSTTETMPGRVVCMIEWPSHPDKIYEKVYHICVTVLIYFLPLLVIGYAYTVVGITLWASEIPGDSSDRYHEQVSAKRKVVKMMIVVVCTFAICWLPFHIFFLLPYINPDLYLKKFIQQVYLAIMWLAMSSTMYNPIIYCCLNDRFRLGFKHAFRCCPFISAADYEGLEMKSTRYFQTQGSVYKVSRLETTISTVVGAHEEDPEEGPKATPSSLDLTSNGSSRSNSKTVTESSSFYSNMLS

With `COc1ccccc1CC(=N)N1C[C@@H]2C(=O)CCC(c3ccccc3)(c3ccccc3)[C@@H]2C1` the Kb (Substance-P receptor [1]) was 63.1 nM and the Ki (Substance-P receptor [2]) was 4.16 nM.
